# Test results from PubChem BioAssay (NCI).
#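 Test compounds were applied to cells in 96-well plates for 48 hours at 5 doses. GI50 = concentration required for 50% inhibition of growth. At the TGI there is no net growth.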
# Experiments:
# Assay in all cases: growth of human tumour cells (NCI), 48 h
# 786-0 renal = tested on: 786-0 renal
# A498 renal = tested on: A498 renal
# ACHN renal = tested on: ACHN renal
# BT-549 breast = tested on: BT-549 breast
# CAKI-1 renal = tested on: CAKI-1 renal
# CCRF-CEM leukemia = tested on: CCRF-CEM leukemia
# COLO 205 colon = tested on: COLO 205 colon
# DU-145 prostate = tested on: DU-145 prostate
# HCC-2998 colon = tested on: HCC-2998 colon
# HCT-116 colon = tested on: HCT-116 colon
# HCT-15 colon = tested on: HCT-15 colon
# HL-60(TB) leukemia = tested on: HL-60(TB) leukemia
# HOP-62 NSCLC = tested on: HOP-62 NSCLC
# HOP-92 NSCLC = tested on: HOP-92 NSCLC
# HS 578T breast = tested on: HS 578T breast
# HT29 colon = tested on: HT29 colon
# IGROV1 ovarian = tested on: IGROV1 ovarian
# K-562 leukemia = tested on: K-562 leukemia
# KM12 colon = tested on: KM12 colon
# LOX IMVI melanoma = tested on: LOX IMVI melanoma
# M14 melanoma = tested on: M14 melanoma
# MALME-3M melanoma = tested on: MALME-3M melanoma
# MCF7 breast = tested on: MCF7 breast
# MDA-MB-435 = tested on: MDA-MB-435
# MDA-MB-468 breast = tested on: MDA-MB-468 breast
# MOLT-4 leukemia = tested on: MOLT-4 leukemia
# NCI-H226 lung = tested on: NCI-H226 lung
# NCI-H23 lung = tested on: NCI-H23 lung
# NCI-H460 lung = tested on: NCI-H460 lung
# NCI-H522 lung = tested on: NCI-H522 lung
# NCI/ADR-RES ovarian = tested on: NCI/ADR-RES ovarian
# OVCAR-3 ovarian = tested on: OVCAR-3 ovarian
# OVCAR-5 ovarian = tested on: OVCAR-5 ovarian
# PC-3 prostate = tested on: PC-3 prostate
# RPMI-8226 leukemia = tested on: RPMI-8226 leukemia
# RXF 393 renal = tested on: RXF 393 renal
# SF-268 CNS = tested on: SF-268 CNS
# SF-295 CNS = tested on: SF-295 CNS
# SF-539 CNS = tested on: SF-539 CNS
# SK-MEL-2 melanoma = tested on: SK-MEL-2 melanoma
# SK-MEL-28 melanoma = tested on: SK-MEL-28 melanoma
# SK-MEL-5 melanoma = tested on: SK-MEL-5 melanoma
# SK-OV-3 ovarian = tested on: SK-OV-3 ovarian
# SNB-19 CNS = tested on: SNB-19 CNS
# SNB-75 CNS = tested on: SNB-75 CNS
# SR leukemia = tested on: SR leukemia
# SW-620 colon = tested on: SW-620 colon
# T-47D breast = tested on: T-47D breast
# TK-10 renal = tested on: TK-10 renal
# U251 CNS = tested on: U251 CNS
# UACC-62 melanoma = tested on: UACC-62 melanoma
# UO-31 renal = tested on: UO-31 renal
compound,measurement,setting,value
COc1ccc2cc([C@H](C)C(=O)[Se]CCC#N)ccc2c1,GI50,786-0 renal,2.12 µM
same,TGI,786-0 renal,3.72 µM
same,GI50,A498 renal,1.78 µM
same,TGI,A498 renal,3.27 µM
same,GI50,ACHN renal,2.42 µM
same,TGI,ACHN renal,5.42 µM
same,GI50,BT-549 breast,1.61 µM
same,TGI,BT-549 breast,3.12 µM
same,GI50,CAKI-1 renal,1.88 µM
same,TGI,CAKI-1 renal,3.32 µM
same,GI50,CCRF-CEM leukemia,3.06 µM
same,TGI,CCRF-CEM leukemia,56.8 µM
same,GI50,COLO 205 colon,5.81 µM
same,TGI,COLO 205 colon,23.1 µM
same,GI50,DU-145 prostate,2.66 µM
same,TGI,DU-145 prostate,8.51 µM
same,GI50,HCC-2998 colon,7.06 µM
same,TGI,HCC-2998 colon,22.6 µM
same,GI50,HCT-116 colon,1.79 µM
same,TGI,HCT-116 colon,3.37 µM
same,GI50,HCT-15 colon,2 µM
same,TGI,HCT-15 colon,4.53 µM
same,GI50,HL-60(TB) leukemia,1.38 µM
same,TGI,HL-60(TB) leukemia,4.24 µM
same,GI50,HOP-62 NSCLC,2.16 µM
same,TGI,HOP-62 NSCLC,3.94 µM
same,GI50,HOP-92 NSCLC,1.76 µM
same,TGI,HOP-92 NSCLC,3.48 µM
same,GI50,HS 578T breast,2.07 µM
same,TGI,HS 578T breast,7.29 µM
same,GI50,HT29 colon,2.02 µM
same,TGI,HT29 colon,4.82 µM
same,GI50,IGROV1 ovarian,2.23 µM
same,TGI,IGROV1 ovarian,4.98 µM
same,GI50,K-562 leukemia,3.78 µM
same,TGI,K-562 leukemia,23.6 µM
same,GI50,KM12 colon,5.63 µM
same,TGI,KM12 colon,50.9 µM
same,GI50,LOX IMVI melanoma,1.89 µM
same,TGI,LOX IMVI melanoma,4.97 µM
same,GI50,M14 melanoma,1.48 µM
same,TGI,M14 melanoma,3.44 µM
same,GI50,MALME-3M melanoma,1.64 µM
same,TGI,MALME-3M melanoma,3.39 µM
same,GI50,MCF7 breast,2.22 µM
same,TGI,MCF7 breast,10 µM
same,GI50,MDA-MB-435,1.79 µM
same,TGI,MDA-MB-435,3.73 µM
same,GI50,MDA-MB-468 breast,1.96 µM
same,TGI,MDA-MB-468 breast,4.41 µM
same,GI50,MOLT-4 leukemia,2.62 µM
same,TGI,MOLT-4 leukemia,13 µM
same,GI50,NCI-H226 lung,1.56 µM
same,TGI,NCI-H226 lung,3.63 µM
same,GI50,NCI-H23 lung,2.71 µM
same,TGI,NCI-H23 lung,7.95 µM
same,GI50,NCI-H460 lung,2.72 µM
same,TGI,NCI-H460 lung,12.1 µM
same,GI50,NCI-H522 lung,1.48 µM
same,TGI,NCI-H522 lung,2.92 µM
same,GI50,NCI/ADR-RES ovarian,2 µM
same,TGI,NCI/ADR-RES ovarian,5.21 µM
same,GI50,OVCAR-3 ovarian,2.39 µM
same,TGI,OVCAR-3 ovarian,5.78 µM
same,GI50,OVCAR-5 ovarian,2.52 µM
same,TGI,OVCAR-5 ovarian,6.29 µM
same,GI50,PC-3 prostate,2.7 µM
same,TGI,PC-3 prostate,8.53 µM
same,GI50,RPMI-8226 leukemia,2.86 µM
same,TGI,RPMI-8226 leukemia,9.32 µM
same,GI50,RXF 393 renal,1.67 µM
same,TGI,RXF 393 renal,3.22 µM
same,GI50,SF-268 CNS,2.44 µM
same,TGI,SF-268 CNS,5.11 µM
same,GI50,SF-295 CNS,1.81 µM
same,TGI,SF-295 CNS,3.55 µM
same,GI50,SF-539 CNS,1.95 µM
same,TGI,SF-539 CNS,3.75 µM
same,GI50,SK-MEL-2 melanoma,1.9 µM
same,TGI,SK-MEL-2 melanoma,4.39 µM
same,GI50,SK-MEL-28 melanoma,2.02 µM
same,TGI,SK-MEL-28 melanoma,4.8 µM
same,GI50,SK-MEL-5 melanoma,2.02 µM
same,TGI,SK-MEL-5 melanoma,4.07 µM
same,GI50,SK-OV-3 ovarian,4.49 µM
same,TGI,SK-OV-3 ovarian,7.42 µM
same,GI50,SNB-19 CNS,1.79 µM
same,TGI,SNB-19 CNS,3.47 µM
same,GI50,SNB-75 CNS,1.78 µM
same,TGI,SNB-75 CNS,3.59 µM
same,GI50,SR leukemia,2.13 µM
same,TGI,SR leukemia,12.2 µM
same,GI50,SW-620 colon,2.91 µM
same,TGI,SW-620 colon,7.97 µM
same,GI50,T-47D breast,5.43 µM
same,TGI,T-47D breast,28.2 µM
same,GI50,TK-10 renal,1.63 µM
same,TGI,TK-10 renal,3.09 µM
same,GI50,U251 CNS,1.7 µM
same,TGI,U251 CNS,3.26 µM
same,GI50,UACC-62 melanoma,2.52 µM
same,TGI,UACC-62 melanoma,7.52 µM
same,GI50,UO-31 renal,1.44 µM
same,TGI,UO-31 renal,2.78 µM
